Assay results reported in US10501421B1, “Substituted benzimidazoles as modulators of Ras signaling” (VANDERBILT UNIVERSITY, priority 2017, dated 2019).

What was measured:
[1] = target: Ras GEF SOS (Son of Sevenless) (Homo sapiens, UniProt Q07889); assay: SOS-mediated nucleotide exchange on Ras (BODIPY-GDP fluorescence); assay type: biochemical; settings: SOS-mediated exchange of BODIPY-GDP for GTP on Ras
Summary of the method: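 Ras loaded with BODIPY-GDP was mixed in buffer with test compound, then GTP and SOS. Fluorescence change from labeled GDP/GTP exchange was followed over time, and rates came from single-exponential fits. EC50 came from a four-parameter fit of mean rate against compound concentration.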

[2] = target: T1, Son of Sevenless (SOS) (Homo sapiens, UniProt Q07889); assay: Binding to SOS, fluorescence polarization anisotropy (FPA) probe displacement; settings: displacement of FITC-conjugated probe (Example 285), affinity calculated from IC50
T1 sequence (Q07889 564-1049 limits assumed): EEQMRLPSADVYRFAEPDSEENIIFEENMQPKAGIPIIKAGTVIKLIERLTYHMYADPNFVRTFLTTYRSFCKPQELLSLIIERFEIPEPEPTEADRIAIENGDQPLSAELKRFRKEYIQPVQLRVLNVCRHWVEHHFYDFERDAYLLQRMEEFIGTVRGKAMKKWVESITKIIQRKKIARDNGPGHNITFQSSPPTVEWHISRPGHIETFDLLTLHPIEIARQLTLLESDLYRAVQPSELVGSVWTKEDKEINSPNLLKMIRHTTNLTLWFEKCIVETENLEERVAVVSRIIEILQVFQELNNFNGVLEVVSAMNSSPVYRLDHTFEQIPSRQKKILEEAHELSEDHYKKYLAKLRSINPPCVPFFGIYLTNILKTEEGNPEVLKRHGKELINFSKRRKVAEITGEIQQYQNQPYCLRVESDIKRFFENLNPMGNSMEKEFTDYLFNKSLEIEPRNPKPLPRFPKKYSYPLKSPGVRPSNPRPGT
Summary of the method: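 A FITC-conjugated probe compound was incubated with SOS in buffer, and its displacement was tracked as a change in fluorescence anisotropy across a test-compound dose range. IC50 came from a four-parameter variable-slope fit, and binding affinity was calculated from it.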

Chain of Ras GEF SOS (Son of Sevenless) (P01112 1-166 partner limits assumed, one chain of several): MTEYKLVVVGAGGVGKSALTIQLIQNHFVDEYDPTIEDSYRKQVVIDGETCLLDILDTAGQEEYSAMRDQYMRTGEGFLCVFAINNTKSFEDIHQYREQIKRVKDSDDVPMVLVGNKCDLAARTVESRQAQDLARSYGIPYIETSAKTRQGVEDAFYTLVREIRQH

EC50 [1] [nM]	Ki [2] [nM]	Structure (SMILES)
< 1000	1000 to 5000	Cc1cc(CO)c2nc(N3CCNCC3)n(Cc3cc(C)c(F)c(C)c3)c2c1 [Example 280, [1-[(4-fluoro-3,5-dimethylphenyl)methyl]-6-methyl-2-piperazin-1-ylbenzimidazol-4-yl]methanol]
5000 to 30000	> 5000	NC(CO)c1cc(Cl)cc2c1nc(N1CCNCC1)n2Cc1ccc(F)c(Cl)c1 (stereo not shown) [Example 283, 2-amino-2-[6-chloro-1-[(3-chloro-4-fluorophenyl)methyl]-2-piperazin-1-ylbenzimidazol-4-yl]ethanol]
< 1000	1000 to 5000	Cc1cc2nc(N3CC(CN)C3)n(Cc3ccc(F)c(Cl)c3)c2cc1C [Example 288, (1-(1-(3-chloro-4-fluorobenzyl)-5,6-dimethyl-1H-benzo[d]imidazol-2-yl)azetidin-3-yl)methanamine]
1000 to 5000	1000 to 5000	Cc1cc2nc(NC3CCNC3)n(Cc3ccc(F)c(Cl)c3)c2cc1C (stereo not shown) [Example 293, 1-(3-chloro-4-fluorobenzyl)-5,6-dimethyl-N-(pyrrolidin-3-yl)-1H-benzo[d]imidazol-2-amine]
< 1000	< 500	Cc1cc(Cn2c(NCCN)nc3c(N4CCC(N)CC4)cc(Cl)cc32)cc(C)c1F [Example 298, N^1-(4-(4-aminopiperidin-1-yl)-6-chloro-1-(4-fluoro-3,5-dimethylbenzyl)-1H-benzo[d]imidazol-2-yl)ethane-1,2-diamine]
< 1000	< 500	Cc1cc(Cn2c(NCCN)nc3c(N4CCNCC4)cc(Cl)cc32)cc(C)c1F [Example 299, N^1-(6-chloro-1-(4-fluoro-3,5-dimethylbenzyl)-4-(piperazin-1-yl)-1H-benzo[d]imidazol-2-yl)ethane-1,2-diamine]
< 1000	< 500	Cc1cc(Cn2c(NCCN)nc3c(N4CCN(C)CC4)cc(Cl)cc32)cc(C)c1F [Example 300, N^1-(6-chloro-1-(4-fluoro-3,5-dimethylbenzyl)-4-(4-methylpiperazin-1-yl)-1H-benzo[d]imidazol-2-yl)ethane-1,2-diamine]
1000 to 5000	< 500	Cc1cc(Cn2c(NCC3CNC3)nc3c(N4CCN(C)CC4)cc(Cl)cc32)cc(C)c1F [Example 301, N-(azetidin-3-ylmethyl)-6-chloro-1-(4-fluoro-3,5-dimethylbenzyl)-4-(4-methylpiperazin-1-yl)-1H-benzo[d]imidazol-2-amine]
< 1000	500 to 1000	Cc1cc(Cn2c(NCC3CNC3)nc3c(C4=CCNCC4)cc(Cl)cc32)cc(C)c1F [Example 302, N-(azetidin-3-ylmethyl)-6-chloro-1-(4-fluoro-3,5-dimethylbenzyl)-4-(1,2,3,6-tetrahydropyridin-4-yl)-1H-benzo[d]imidazol-2-amine]
< 1000	< 500	Cc1cc(Cn2c(NCCN)nc3c(C4=CCNCC4)cc(Cl)cc32)cc(C)c1F [Example 303, N^1-(6-chloro-1-(4-fluoro-3,5-dimethylbenzyl)-4-(1,2,3,6-tetrahydropyridin-4-yl)-1H-benzo[d]imidazol-2-yl)ethane-1,2-diamine]
< 1000	< 500	Cc1cc(Cn2c(NCC3CNC3)nc3c(-c4ccccc4Cl)cc(Cl)cc32)cc(C)c1F [Example 305, N-(azetidin-3-ylmethyl)-6-chloro-4-(2-chlorophenyl)-1-(4-fluoro-3,5-dimethylbenzyl)-1H-benzo[d]imidazol-2-amine]
1000 to 5000	< 500	Cc1cc(Cn2c(NCCN)nc3c(-c4ccccc4Cl)cc(Cl)cc32)cc(C)c1F [Example 306, N^1-(6-chloro-4-(2-chlorophenyl)-1-(4-fluoro-3,5-dimethylbenzyl)-1H-benzo[d]imidazol-2-yl)ethane-1,2-diamine]
1000 to 5000	< 500	Cc1cc(Cn2c(N3CCNCC3)nc3c(-c4ccccc4Cl)cc(Cl)cc32)cc(C)c1F [Example 307, 6-chloro-4-(2-chlorophenyl)-1-(4-fluoro-3,5-dimethylbenzyl)-2-(piperazin-1-yl)-1H-benzo[d]imidazole]
< 1000	500 to 1000	Cc1cc(Cn2c(N3CCNCC3)nc3c(CC(=O)O)cc(Cl)cc32)cc(C)c1F [Example 310, 2-(6-chloro-1-(4-fluoro-3,5-dimethylbenzyl)-2-(piperazin-1-yl)-1H-benzo[d]imidazol-4-yl)acetic acid]
< 1000	1000 to 5000	O=C(O)Cc1cc(Cl)cc2c1nc(N1CCNCC1)n2Cc1ccc(F)c(Cl)c1 [Example 311, 2-(6-chloro-1-(3-chloro-4-fluorobenzyl)-2-(piperazin-1-yl)-1H-benzo[d]imidazol-4-yl)acetic acid]
< 1000	< 500	Cc1cc(Cn2c(N3CCNCC3)nc3c(N4CCOCC4)cc(Cl)cc32)cc(C)c1F [Example 312, 4-(6-chloro-1-(4-fluoro-3,5-dimethylbenzyl)-2-(piperazin-1-yl)-1H-benzo[d]imidazol-4-yl)morpholine]
1000 to 5000	1000 to 5000	Cc1cc(Br)c2nc(NCCN)n(Cc3cc(C)c(F)c(C)c3)c2c1 [Example 313, N^1-(4-bromo-1-(4-fluoro-3,5-dimethylbenzyl)-6-methyl-1H-benzo[d]imidazol-2-yl)ethane-1,2-diamine]

Further lines, the compound ahead of its results:

Structure (SMILES)	EC50 [1] [nM]	Ki [2] [nM]
Cc1cc(Cn2c(N3CCNCC3)nc3c(-n4ccc(N)c4)cc(Cl)cc32)cc(C)c1F [Example 279, 1-[6-chloro-1-[(4-fluoro-3,5-dimethylphenyl)methyl]-2-piperazin-1-ylbenzimidazol-4-yl]pyrrol-3-amine]	1000 to 5000	< 500
Cc1cc(Cn2c(N3CCNCC3)nc3c(C(N)C(=O)O)cc(Cl)cc32)cc(C)c1F (stereo not shown) [Example 282, 2-amino-2-[6-chloro-1-[(4-fluoro-3,5-dimethylphenyl)methyl]-2-piperazin-1-ylbenzimidazol-4-yl]acetic acid]	1000 to 5000	500 to 1000
Cc1cc2nc(N3CCCC(N)C3)n(Cc3ccc(F)c(Cl)c3)c2cc1C (stereo not shown) [Example 290, 1-(1-(3-chloro-4-fluorobenzyl)-5,6-dimethyl-1H-benzo[d]imidazol-2-yl)piperidin-3-amine]	1000 to 5000	1000 to 5000
Cc1cc2nc(NCC3CNC3)n(Cc3ccc(F)c(Cl)c3)c2cc1C [Example 291, N-(azetidin-3-ylmethyl)-1-(3-chloro-4-fluorobenzyl)-5,6-dimethyl-1H-benzo[d]imidazol-2-amine]	< 1000	1000 to 5000
Cc1cc2nc(N[C@H]3C[C@@H](N)C3)n(Cc3ccc(F)c(Cl)c3)c2cc1C [Example 292, (1s,3s)-N^1-(1-(3-chloro-4-fluorobenzyl)-5,6-dimethyl-1H-benzo[d]imidazol-2-yl)cyclobutane-1,3-diamine]	1000 to 5000	1000 to 5000
Cc1cc2nc(N3CCC(N)CC3)n(Cc3ccc(F)c(Cl)c3)c2cc1C [Example 294, 1-(1-(3-chloro-4-fluorobenzyl)-5,6-dimethyl-1-benzo[d]imidazol-2-yl)piperidin-4-amine]	5000 to 30000	> 5000
Cc1cc(Cn2c(N3CCNCC3)nc3c(N(C)C)cc(Cl)cc32)cc(C)c1F [Example 296, 6-chloro-1-(4-fluoro-3,5-dimethylbenzyl)-N,N-dimethyl-2-(piperazin-1-yl)-1H-benzo[d]imidazol-4-amine]	1000 to 5000	< 500
Cc1cc(Cn2c(N3CCNCC3)nc3c(N4CCCCC4)cc(Cl)cc32)cc(C)c1F [Example 297, 6-chloro-1-(4-fluoro-3,5-dimethylbenzyl)-2-(piperazin-1-yl)-4-(piperidin-1-yl)-1H-benzo[d]imidazole]	1000 to 5000	< 500
Cc1cc(Cn2c(N3CCNCC3)nc3c(C4=CCNCC4)cc(Cl)cc32)cc(C)c1F [Example 304, 6-chloro-1-(4-fluoro-3,5-dimethylbenzyl)-2-(piperazin-1-yl)-4-(1,2,3,6-tetrahydropyridin-4-yl)-1H-benzo[d]imidazole]	< 1000	< 500
Cc1cc(Cn2c(NCCN)nc3c(-c4ccccc4OC(C)C)cc(Cl)cc32)cc(C)c1F [Example 308, N^1-(6-chloro-1-(4-fluoro-3,5-dimethylbenzyl)-4-(2-isopropoxyphenyl)-1H-benzo[d]imidazol-2-yl)ethane-1,2-diamine]	1000 to 5000	< 500
Cc1cc(Cn2c(NCC3CNC3)nc3c(N4CCNCC4)cc(Cl)cc32)cc(C)c1F [Example 309, N-(azetidin-3-ylmethyl)-6-chloro-1-(4-fluoro-3,5-dimethylbenzyl)-4-(piperazin-1-yl)-1H-benzo[d]imidazol-2-amine]	1000 to 5000	< 500
Cc1cc(OC2CCNCC2)c2nc(N3CCNCC3)n(Cc3cc(C)c(F)c(C)c3)c2c1 [Example 315, 1-(4-fluoro-3,5-dimethylbenzyl)-6-methyl-2-(piperazin-1-yl)-4-(piperidin-4-yloxy)-1H-benzo[d]imidazole]	< 1000	1000 to 5000
